Columns and labels:
Details in all cases: main component drawn
B. subtilis 168 [1] = experiment: fitness (endpoint OD595 vs no drug) (fraction); higher = more growth
Procedure, shortened: (§1)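 Fitness compares growth at the stationary-phase transition with the robust mean of no-drug control wells, as a ratio of optical densities. The ratio is capped at 1. Wells of 384-well plates held 30 µl, or 55 µl for S. pneumoniae, inoculated at OD595 0.01. Readings at OD595 every 30 min for 14 h at 37 °C were corrected against the first reading.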

S. aureus Newman [2] = experiment: as above
Procedure, shortened: as §1

B. subtilis 168 [3] = experiment: Bliss interaction score (quartile over a dose matrix) (fitness difference); higher = more antagonism (negative = synergy)
Procedure, shortened: (§2)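 The Bliss score is observed minus expected fitness under the product model, reported as quartiles over technical, biological and donor/recipient replicates. Fitness is the OD595 at entry into stationary phase divided by the plate's robust no-drug mean and capped at 1. Single-drug fitness was inferred from combination data.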

S. aureus DSM 20231 = experiment: as above
Procedure, shortened: as §2

S. aureus Newman [4] = experiment: as above
Procedure, shortened: as §2

S. pneumoniae D39V = experiment: as above
Procedure, shortened: as §2
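Throughout, for Bliss interaction score (quartile over a dose matrix): first quartile when negative (synergy) and third quartile when positive (antagonism).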

CC[C@H](C)[C@H](N)C1=N[C@H](C(=O)N[C@@H](CC(C)C)C(=O)N[C@H](CCC(=O)O)C(=O)N[C@H](C(=O)N[C@H]2CCCCNC(=O)[C@H](CC(N)=O)NC(=O)[C@@H](CC(=O)O)NC(=O)[C@H](Cc3cnc[nH]3)NC(=O)[C@@H](Cc3ccccc3)NC(=O)[C@H]([C@@H](C)CC)NC(=O)[C@@H](CCCN)NC2=O)[C@@H](C)CC)CS1 [Bacitracin] + CN1C2=CC=CC=C2N=C3C1=CC=CC3=O [Pyocyanin]
fitness
Details | first compound 18.75 µg/mL | first compound 37.5 µg/mL | first compound 75 µg/mL | first compound 150 µg/mL
B. subtilis 168 [1], partner 1.25 µg/mL | – | 0.9 | 0.931 | 0.8
B. subtilis 168 [1], partner 2.5 µg/mL | – | 0.839 | 0.853 | 0.682
B. subtilis 168 [1], partner 5 µg/mL | – | 0.614 | 0.594 | 0.419
S. aureus Newman [2], partner 1.25 µg/mL | 0.574 | 0.208 | 0.04 | –
S. aureus Newman [2], partner 2.5 µg/mL | 0.496 | 0.18 | 0.0276 | –
S. aureus Newman [2], partner 5 µg/mL | 0.281 | 0.148 | 0.0716 | –

Details | Bliss interaction score
B. subtilis 168 [3] | 0.0566
S. aureus DSM 20231 | 0.0748
S. aureus Newman [4] | -0.0473
S. pneumoniae D39V | 0.0487

CC[C@H](C)[C@H](N)C1=N[C@H](C(=O)N[C@@H](CC(C)C)C(=O)N[C@H](CCC(=O)O)C(=O)N[C@H](C(=O)N[C@H]2CCCCNC(=O)[C@H](CC(N)=O)NC(=O)[C@@H](CC(=O)O)NC(=O)[C@H](Cc3cnc[nH]3)NC(=O)[C@@H](Cc3ccccc3)NC(=O)[C@H]([C@@H](C)CC)NC(=O)[C@@H](CCCN)NC2=O)[C@@H](C)CC)CS1 [Bacitracin] + CN(C)c1cc(NC(=O)CNC(C)(C)C)c(O)c2c1C[C@H]1C[C@H]3[C@H](N(C)C)C(O)=C(C(N)=O)C(=O)[C@@]3(O)C(O)=C1C2=O [Tigecycline]
fitness
Details | partner 0.039 µg/mL | partner 0.078 µg/mL | partner 0.156 µg/mL
B. subtilis 168 [1], first compound 37.5 µg/mL | 0.997 | 0.946 | 0.867
B. subtilis 168 [1], first compound 75 µg/mL | ≥ 1 | 0.859 | 0.933
S. aureus Newman [2], first compound 18.75 µg/mL | 0.705 | 0.707 | 0.724
S. aureus Newman [2], first compound 75 µg/mL | 0.0511 | 0.058 | 0.0883

fitness, B. subtilis 168 [1], one replicate
Details | first compound 37.5 µg/mL | first compound 75 µg/mL | first compound 150 µg/mL
partner 0.125 µg/mL | ≥ 1 | ≥ 1 | ≥ 1
partner 0.25 µg/mL | 0.907 | 0.892 | 0.855
partner 0.5 µg/mL | 0.915 | 0.947 | 0.914

Details | Bliss interaction score
B. subtilis 168 [3] | 0.0848
S. aureus DSM 20231 | 0.0393
S. aureus Newman [4] | 0.0592
S. pneumoniae D39V | 0.0672

CC[C@H](C)[C@H](N)C1=N[C@H](C(=O)N[C@@H](CC(C)C)C(=O)N[C@H](CCC(=O)O)C(=O)N[C@H](C(=O)N[C@H]2CCCCNC(=O)[C@H](CC(N)=O)NC(=O)[C@@H](CC(=O)O)NC(=O)[C@H](Cc3cnc[nH]3)NC(=O)[C@@H](Cc3ccccc3)NC(=O)[C@H]([C@@H](C)CC)NC(=O)[C@@H](CCCN)NC2=O)[C@@H](C)CC)CS1 [Bacitracin] + CN(N=O)C(=O)N[C@@H](C=O)[C@@H](O)[C@H](O)[C@H](O)CO [Streptozotocin]
fitness
Details | partner 0.15 µg/mL | partner 0.3 µg/mL | partner 0.6 µg/mL
B. subtilis 168 [1], first compound 37.5 µg/mL | 0.913 | 0.856 | 0.906
B. subtilis 168 [1], first compound 75 µg/mL | 0.806 | 0.857 | 0.876
S. aureus Newman [2], first compound 18.75 µg/mL | 0.59 | 0.526 | 0.245
S. aureus Newman [2], first compound 37.5 µg/mL | 0.124 | 0.0706 | 0.0163
S. aureus Newman [2], first compound 75 µg/mL | 0.0279 | 0.0183 | 0.0064

Details | Bliss interaction score
B. subtilis 168 [3] | 0.0453
S. aureus DSM 20231 | -0.0576
S. aureus Newman [4] | -0.104
S. pneumoniae D39V | -0.0625

CC[C@H](C)[C@H](N)C1=N[C@H](C(=O)N[C@@H](CC(C)C)C(=O)N[C@H](CCC(=O)O)C(=O)N[C@H](C(=O)N[C@H]2CCCCNC(=O)[C@H](CC(N)=O)NC(=O)[C@@H](CC(=O)O)NC(=O)[C@H](Cc3cnc[nH]3)NC(=O)[C@@H](Cc3ccccc3)NC(=O)[C@H]([C@@H](C)CC)NC(=O)[C@@H](CCCN)NC2=O)[C@@H](C)CC)CS1 [Bacitracin] + CN[C@H](CC(C)C)C(=O)N[C@H]1C(=O)N[C@@H](CC(N)=O)C(=O)N[C@H]2C(=O)N[C@H]3C(=O)N[C@H](C(=O)N[C@H](C(=O)O)c4cc(O)cc(O)c4-c4cc3ccc4O)[C@H](O)c3ccc(c(Cl)c3)Oc3cc2cc(c3O[C@@H]2O[C@H](CO)[C@@H](O)[C@H](O)[C@H]2O[C@H]2C[C@](C)(N)[C@H](O)[C@H](C)O2)Oc2ccc(cc2Cl)[C@H]1O [Vancomycin]
fitness, S. aureus Newman [2]
Details | first compound 18.75 µg/mL | first compound 37.5 µg/mL | first compound 75 µg/mL
partner 0.1875 µg/mL | 0.735 | 0.183 | 0.0338
partner 0.375 µg/mL | 0.723 | 0.135 | 0.0309
partner 0.75 µg/mL | 0.712 | 0.159 | 0.0262

Details | Bliss interaction score
B. subtilis 168 [3] | 0.0708
S. aureus DSM 20231 | 0.0843
S. aureus Newman [4] | -0.0422
S. pneumoniae D39V | -0.0651

CC[C@H](C)[C@H](N)C1=N[C@H](C(=O)N[C@@H](CC(C)C)C(=O)N[C@H](CCC(=O)O)C(=O)N[C@H](C(=O)N[C@H]2CCCCNC(=O)[C@H](CC(N)=O)NC(=O)[C@@H](CC(=O)O)NC(=O)[C@H](Cc3cnc[nH]3)NC(=O)[C@@H](Cc3ccccc3)NC(=O)[C@H]([C@@H](C)CC)NC(=O)[C@@H](CCCN)NC2=O)[C@@H](C)CC)CS1 [Bacitracin] + CO/N=C(\C(=O)N[C@@H]1C(=O)N2C(C(=O)[O-])=C(C[N+]3(C)CCCC3)CS[C@H]12)c1csc(N)n1 [Cefepime]
fitness, S. aureus Newman [2]
Details | first compound 18.75 µg/mL | first compound 37.5 µg/mL | first compound 75 µg/mL
partner 0.125 µg/mL | 0.699 | – | 0.0274
partner 0.25 µg/mL | 0.634 | – | 0.0298
partner 0.5 µg/mL | – | 0.0986 | 0.0408

Details | Bliss interaction score
B. subtilis 168 [3] | -0.124
S. aureus DSM 20231 | 0.0889
S. aureus Newman [4] | -0.0863
S. pneumoniae D39V | -0.144

CC[C@H](C)[C@H](N)C1=N[C@H](C(=O)N[C@@H](CC(C)C)C(=O)N[C@H](CCC(=O)O)C(=O)N[C@H](C(=O)N[C@H]2CCCCNC(=O)[C@H](CC(N)=O)NC(=O)[C@@H](CC(=O)O)NC(=O)[C@H](Cc3cnc[nH]3)NC(=O)[C@@H](Cc3ccccc3)NC(=O)[C@H]([C@@H](C)CC)NC(=O)[C@@H](CCCN)NC2=O)[C@@H](C)CC)CS1 [Bacitracin] + Cn1nnc(-c2ccc(-c3ccc(N4C[C@H](CO)OC4=O)cc3F)cn2)n1 [Tedizolid]
fitness, S. aureus Newman [2]
Details | first compound 18.75 µg/mL | first compound 37.5 µg/mL | first compound 75 µg/mL
partner 0.0625 µg/mL | 0.646 | 0.0796 | 0.0039
partner 0.125 µg/mL | – | 0.0327 | 0.0056
partner 0.25 µg/mL | 0.0222 | 0.0202 | 0.0046

Details | Bliss interaction score
B. subtilis 168 [3] | -0.0855
S. aureus DSM 20231 | -0.0663
S. aureus Newman [4] | -0.222
S. pneumoniae D39V | 0.12

CC[C@H](C)[C@H](N)C1=N[C@H](C(=O)N[C@@H](CC(C)C)C(=O)N[C@H](CCC(=O)O)C(=O)N[C@H](C(=O)N[C@H]2CCCCNC(=O)[C@H](CC(N)=O)NC(=O)[C@@H](CC(=O)O)NC(=O)[C@H](Cc3cnc[nH]3)NC(=O)[C@@H](Cc3ccccc3)NC(=O)[C@H]([C@@H](C)CC)NC(=O)[C@@H](CCCN)NC2=O)[C@@H](C)CC)CS1 [Bacitracin] + O=C(N[C@H](CO)[C@H](O)c1ccc([N+](=O)[O-])cc1)C(Cl)Cl [Chloramphenicol]
fitness, S. aureus Newman [2]
Details | first compound 18.75 µg/mL | first compound 37.5 µg/mL | first compound 75 µg/mL
partner 0.75 µg/mL | 0.589 | 0.182 | 0.0093
partner 1.5 µg/mL | 0.38 | 0.0293 | 0.0143
partner 3 µg/mL | 0.0184 | 0.0086 | 0.0146

Details | Bliss interaction score
B. subtilis 168 [3] | -0.106
S. aureus DSM 20231 | -0.0262
S. aureus Newman [4] | -0.0971
S. pneumoniae D39V | -0.0459

CN[C@@H]1[C@H](O[C@H]2[C@H](O[C@H]3[C@H](O)[C@@H](O)[C@H](N=C(N)N)[C@@H](O)[C@@H]3N=C(N)N)O[C@@H](C)[C@]2(O)C=O)O[C@@H](CO)[C@H](O)[C@H]1O [Streptomycin] + CCCCCCCCCC(=O)N[C@@H]1[C@H]([C@@H]([C@H](O[C@H]1OC2=C3C=C4C=C2OC5=C(C=C(C=C5)[C@H]([C@H]6C(=O)N[C@@H](C7=C(C(=CC(=C7)O)OC8[C@H]([C@H]([C@@H]([C@H](O8)CO)O)O)O)C9=C(C=CC(=C9)[C@H](C(=O)N6)NC(=O)[C@@H]4NC(=O)[C@@H]1C2=CC(=CC(=C2)OC2=C(C=CC(=C2)[C@H](C(=O)N[C@H](CC2=CC(=C(O3)C=C2)Cl)C(=O)N1)N)O)O)O)C(=O)O)O[C@H]1[C@@H]([C@H]([C@@H]([C@H](O1)CO)O)O)NC(=O)C)Cl)CO)O)O [Teicoplanin]
fitness, S. aureus Newman [2]
Details | first compound 1 µg/mL | first compound 2 µg/mL | first compound 4 µg/mL
partner 0.1562 µg/mL | ≥ 1 | ≥ 1 | –
partner 0.3125 µg/mL | ≥ 1 | 0.932 | –
partner 0.625 µg/mL | 0.917 | 0.803 | 0.344

fitness, S. aureus Newman [2], one replicate
Details | first compound 2 µg/mL | first compound 4 µg/mL | first compound 8 µg/mL
partner 0.62 µg/mL | 0.737 | 0.574 | 0.0838
partner 1.24 µg/mL | 0.527 | 0.0741 | 0.0255
partner 2.48 µg/mL | 0.0707 | 0.0385 | 0.103

Details | Bliss interaction score
B. subtilis 168 [3] | -0.0977
S. aureus DSM 20231 | -0.227
S. aureus Newman [4] | -0.118
S. pneumoniae D39V | -0.0928

Source: the supplement of paper PMC10627819
